Laboratory results published in ChEMBL document CHEMBL1135585, “Mixed steroidal 1,2,4,5-tetraoxanes: antimalarial and antimycobacterial activity” (J Med Chem, 2002).
Values joined by “and” are separate entries in the source; they are usually repeats but may differ in a detail not shown here. Identical values can stand only once.

Legend:
[1] = tested on: Mycobacterium tuberculosis; experiment: In vitro inhibitory activity against Mycobacterium tuberculosis strain H37Rv at a concentration of 6.25 ug/mL; type: functional
[2] = tested on: Plasmodium falciparum
Description: In vitro inhibitory activity against chloroquine-sensitive Plasmodium falciparum African D6

[3] = tested on: Plasmodium falciparum; remark: listed apart in the source
Description: In vitro inhibitory activity against chloroquine-resistant Plasmodium falciparum W2 Indochina

[4] = tested on: Mycobacterium tuberculosis; experiment: In vitro anti-mycobacterial activity against Mycobacterium tuberculosis strain H37Rv; type: functional
[5] = tested on: Vero; experiment: In vitro cytotoxicity against VERO cell line; type: functional, cell-based; conditions: Chlorocebus sabaeus

SMILES	inhibition at 6.25 µg/mL [1] [%]	IC50 [2] [nM]	IC50 [3] [nM]	MIC [4]	IC50 [5]
COC(=O)CCC(C)C1CC[C@H]2[C@@H]3[C@H](OC(C)=O)C[C@@H]4CC5(CC[C@]4(C)[C@H]3C[C@H](OC(C)=O)[C@]12C)OOC1(CCC(C)CC1)OO5 (stereo in doubt; 3g)	29	9.99	5.05	> 6.25 µg/mL and > 9.63 µM	
CC(=O)O[C@H]1C[C@H]2[C@@H]([C@H](OC(C)=O)C[C@@H]3CC4(CC[C@@]32C)OOC2(CCC(C)CC2)OO4)[C@@H]2CCC(C(C)CCC(=O)O)[C@@]12C (stereo in doubt; 4g)	21	1.53	0.98	> 6.25 µg/mL and > 9.84 µM	
CC(=O)O[C@H]1C[C@H]2[C@@H]([C@H](OC(C)=O)C[C@@H]3CC4(CC[C@@]32C)OOC2(CCC(C)CC2)OO4)[C@@H]2CCC(C(C)CCC(N)=O)[C@@]12C (stereo in doubt; 12)	99	1.17	0.58	3.13 µg/mL and 4.94 µM	3.49 µg/mL and 5.51 µM
CNC(=O)CCC(C)C1CC[C@H]2[C@@H]3[C@H](OC(C)=O)C[C@@H]4CC5(CC[C@]4(C)[C@H]3C[C@H](OC(C)=O)[C@]12C)OOC1(CCC(C)CC1)OO5 (stereo in doubt; 13)	98	5.96	3.61	6.25 µg/mL and 9.65 µM	5.69 µg/mL and 8.78 µM
CCNC(=O)CCC(C)C1CC[C@H]2[C@@H]3[C@H](OC(C)=O)C[C@@H]4CC5(CC[C@]4(C)[C@H]3C[C@H](OC(C)=O)[C@]12C)OOC1(CCC(C)CC1)OO5 (stereo in doubt; 14)	98	5.8	3.93	3.13 µg/mL and 4.73 µM	5.37 µg/mL and 8.11 µM
CCCNC(=O)CCC(C)C1CC[C@H]2[C@@H]3[C@H](OC(C)=O)C[C@@H]4CC5(CC[C@]4(C)[C@H]3C[C@H](OC(C)=O)[C@]12C)OOC1(CCC(C)CC1)OO5 (stereo in doubt; 15)	94	3.22	3.82	6.25 µg/mL and 9.25 µM	8.34 µg/mL and 12.3 µM
NNC(=O)c1ccncc1 [ISONIAZID]				0.05 µg/mL and 0.36 µM	> 1000 µg/mL and > 7 mM
CO[C@H]1/C=C/O[C@@]2(C)Oc3c(C)c(O)c4c(O)c(c(/C=N/N5CCN(C)CC5)c(O)c4c3C2=O)NC(=O)/C(C)=C\C=C\[C@H](C)[C@H](O)[C@@H](C)[C@@H](O)[C@@H](C)[C@H](OC(C)=O)[C@@H]1C [RIFAMPIN]				0.12 µg/mL and 0.15 µM	111 µg/mL and 134 µM
